Assay results taken from ChEMBL document CHEMBL1156305 (Bioorg Med Chem Lett, 2010).
Activity calls are given as the source filed them. The calls are words filed in the database; no cut-off is given here.

Tests used:
[1] = target: T1, 5-hydroxytryptamine receptor 2C (Homo sapiens, UniProt P28335); assay: Binding affinity to 5HT2C receptor
T1 sequence (P28335 whole entry): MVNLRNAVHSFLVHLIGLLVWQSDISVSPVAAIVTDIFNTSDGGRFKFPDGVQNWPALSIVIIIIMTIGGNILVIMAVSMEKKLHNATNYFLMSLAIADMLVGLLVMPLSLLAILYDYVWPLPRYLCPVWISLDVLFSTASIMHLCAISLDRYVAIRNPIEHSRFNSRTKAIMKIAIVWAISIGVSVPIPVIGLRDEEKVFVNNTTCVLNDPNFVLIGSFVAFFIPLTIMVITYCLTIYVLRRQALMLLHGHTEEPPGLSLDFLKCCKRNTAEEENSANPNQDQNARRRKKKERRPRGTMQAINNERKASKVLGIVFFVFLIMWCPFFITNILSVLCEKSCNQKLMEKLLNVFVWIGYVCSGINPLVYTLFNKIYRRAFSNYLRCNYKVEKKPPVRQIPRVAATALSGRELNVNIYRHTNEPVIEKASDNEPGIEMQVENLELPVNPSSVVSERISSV

[2] = target: T2, 5-hydroxytryptamine receptor 2B (Homo sapiens, UniProt P41595); assay: Binding affinity to 5HT2B receptor
T2 sequence (P41595 whole entry): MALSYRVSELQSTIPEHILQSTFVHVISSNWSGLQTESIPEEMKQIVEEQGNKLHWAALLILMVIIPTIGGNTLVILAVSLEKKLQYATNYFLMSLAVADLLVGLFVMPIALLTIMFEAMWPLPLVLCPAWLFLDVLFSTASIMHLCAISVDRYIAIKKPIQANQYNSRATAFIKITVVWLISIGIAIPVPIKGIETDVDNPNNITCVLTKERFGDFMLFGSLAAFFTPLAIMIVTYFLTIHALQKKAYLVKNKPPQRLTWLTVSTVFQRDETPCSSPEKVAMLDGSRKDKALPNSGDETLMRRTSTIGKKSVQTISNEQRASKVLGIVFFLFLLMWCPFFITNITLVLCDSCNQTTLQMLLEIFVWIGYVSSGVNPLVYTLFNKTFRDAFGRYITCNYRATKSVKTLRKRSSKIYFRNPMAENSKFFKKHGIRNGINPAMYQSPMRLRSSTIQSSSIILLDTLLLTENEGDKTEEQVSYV

[3] = target: T3, 5-hydroxytryptamine receptor 2C (Homo sapiens) (UniProt P28335); assay: Agonist activity at 5HT2C receptor relative to control; type: functional; set-up: concentration or dose not given beside the values
T3 sequence (whole entry): T1 sequence (P28335 whole entry)

[4] = target: T1, 5-hydroxytryptamine receptor 2C; assay: Agonist activity at 5HT2C receptor; type: functional
[5] = target: T4, 5-hydroxytryptamine receptor 2A (Homo sapiens, UniProt P28223); assay: Agonist activity at 5HT2A receptor; type: functional
T4 sequence (P28223 whole entry): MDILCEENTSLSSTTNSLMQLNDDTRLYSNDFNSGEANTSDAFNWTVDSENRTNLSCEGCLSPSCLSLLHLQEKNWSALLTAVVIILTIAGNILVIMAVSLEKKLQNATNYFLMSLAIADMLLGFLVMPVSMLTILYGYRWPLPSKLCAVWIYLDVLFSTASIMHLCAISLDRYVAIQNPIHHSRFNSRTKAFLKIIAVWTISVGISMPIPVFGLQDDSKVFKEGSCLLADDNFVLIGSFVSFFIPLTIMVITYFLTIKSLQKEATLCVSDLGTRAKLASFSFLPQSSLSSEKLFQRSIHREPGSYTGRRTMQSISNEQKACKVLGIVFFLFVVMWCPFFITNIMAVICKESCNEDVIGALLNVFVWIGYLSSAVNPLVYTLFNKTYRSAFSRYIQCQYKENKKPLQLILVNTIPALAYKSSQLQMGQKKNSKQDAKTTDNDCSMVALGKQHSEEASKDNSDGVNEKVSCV

[6] = target: T4, 5-hydroxytryptamine receptor 2A; assay: Binding affinity to 5HT2A receptor
[7] = target: T2, 5-hydroxytryptamine receptor 2B; assay: Agonist activity at 5HT2B receptor; type: functional
[8] = target: T4, 5-hydroxytryptamine receptor 2A; assay: Agonist activity at 5HT2A receptor relative to control; type: functional
[9] = Selectivity ratio of Ki for 5HT2B receptor to Ki for 5HT2C receptor
[10] = Bioavailability in dog; type: ADME, organism-based, Canis lupus familiaris; conditions: in vivo
[11] = tested on: Rattus norvegicus; assay: Inhibition of spontaneous nocturnal food intake in po dosed Sprague-Dawley rat measured up to 840 mins; type: functional, organism-based
[12] = Bioavailability in rat; type: ADME, organism-based; conditions: in vivo
[13] = Half life in human liver microsomes; type: ADME, Microsome
[14] = tested on: Plasma; assay: Fraction unbound in Sprague-Dawley rat plasma; type: ADME, cell-free
[15] = Half life in human hepatocytes; type: ADME, cell-based, Liver, Hepatocyte
[16] = species: Macaca mulatta; assay: Activity at MAPK in monkey heart valve […] cells
[17] = Ratio of drug level in RBC to plasma in Sprague-Dawley rat; type: ADME; conditions: in vivo
[18] = tested on: Rattus norvegicus; assay: Inhibition of spontaneous nocturnal food intake in po dosed Sprague-Dawley rat measured up to 25 hrs; type: functional, organism-based
[19] = Ratio of free drug level in brain to plasma in Sprague-Dawley rat; type: ADME, cell-free; conditions: brain and plasma
[20] = species: Rattus norvegicus; assay: Ex vivo agonist activity at 5HT2B receptor in rat stomach fundus; type: functional, organism-based
[21] = Ratio of total drug level in brain to plasma in Sprague-Dawley rat; type: ADME, cell-free; conditions: brain and plasma
[22] = species: Rattus norvegicus; assay: Effect on 5HT2A receptor-mediated head twitches in rat; type: functional, organism-based

Compound	Ki [1] [µM]	Ki ([2]; read-out: Ki) [µM]	Activity [3] [%]	EC50 [4] [µM]	other results
O=C(NCc1ccc(-c2ccc(Cl)cc2)cc1F)N1CCNCC1	0.004	3.5	–	–	–
O=C(NCc1ccc(-c2cc(Cl)cc(Cl)c2)cc1)[C@@H]1CCCN1	0.008	–	65	0.183	–
Cc1noc(C)c1COc1cc(F)c(COC(=O)N2[C@H](C)CNC[C@@H]2C)c(F)c1	0.043	> 10	–	–	–
O=C(NCc1ccc(C2CCCCC2)cc1)[C@@H]1CCCN1	0.0044	4.12	53	0.088	–
O=C(NCc1ccc(OCc2ccccc2)cc1)[C@@H]1CCCN1	0.02	1.72	40	0.073	–
C[C@H]1CC[C@@H](Oc2c(F)cc(CNC(=O)[C@@H]3CCCN3)cc2F)CC1	0.025	–	46	0.044	EC50 [5]: 0.153 µM; Ki [6]: Not Active; Ki [2]: Not Active; EC50 [7]: > 10 µM
COc1cc(OCC2CCCCC2)c(F)cc1CNC(=O)[C@@H]1CCCN1	0.0017	–	85	0.00497	EC50 [5]: 0.5 µM; Ki [6]: Not Active; Ki [2]: Not Active; EC50 [7]: 4.03 µM
O=C(NCc1ccc(OC(F)(F)F)cc1)C1CCNC1 (centres undefined)	0.643	–	–	–	–
CC1(C)CCC(Oc2cc(F)c(CNC(=O)[C@@H]3CCCN3)cc2F)CC1	0.0018	1.67	88	0.001	EC50 [5]: 0.13 µM; Activity [8]: 98%; Ki ([6]; read-out: Ki): 0.0137 µM; EC50 [7]: > 10 µM
O=C(NCc1ccc(OC(F)(F)F)cc1)[C@@H]1CCCN1	0.324	> 10	–	–	Ratio Ki [9]: > 1000
O=C(NCc1ccc(Oc2cccc(F)c2)cc1)[C@@H]1CCCN1	0.023	2.4	46	0.038	–
NCc1cccc(C(=O)NCc2ccc(OC(F)(F)F)cc2)c1	0.585	–	–	–	–
COc1cc(OC2CCC(C)(C)CC2)c(F)cc1CNC(=O)[C@@H]1CCCN1	0.0009	3.94	95	0.0023	EC50 [5]: 0.44 µM; bioavailability [10]: 5.5%; Activity [8]: 76%; Activity [11]: Dose-dependent effect; bioavailability [12]: 5.5%; half-life [13]: 1.67 h; Ki ([6]; read-out: Ki): 0.0128 µM; fraction unbound [14]: 3.6%; half-life [15]: 7.33 h; Ratio Ki [9]: 10000; Activity [16]: inactive; Ratio [17]: 0.7; Activity [18]: Dose-dependent effect; Kp uu [19]: 0.4; EC50 [7]: > 10 µM; Activity [20]: inactive; Kp [21]: 10; Activity [22]: inactive
C[C@@H]1CNC[C@H](C)N1C(=O)OCc1ccccc1	0.083	–	–	–	–
